According to patent US10927089B2, “Diaryl thioether piperazine compounds, preparation methods and uses thereof” (SUNSHINE LAKE PHARMA CO., LTD., priority 2016, dated 2021):

Assay: Pharmacokinetic evaluation after intramuscular injection to rats
Type: in vivo
Settings: im, male rat, solution, 17.5 mg/kg, vortioxetine in plasma
Experimental: The LC/MS/MS system for analysis consists of the Agilent 1200 series vacuum degassing furnace, binary syringe pump, well plate autosampler, column incubator, and API4000 three-stage quadrupole mass spectrometer equipped with electro spray ionization (ESI) source.
Waters XBridge™ C18, 2.1×30 mm, 3.5 μM column was used for analysis, and 20 μL of sample was injected. Analytical conditions: the mobile phase was (2 mM ammonium formate+0.1% formic acid) (A) and (methanol+2 mM ammonium formate+0.1% formic acid) (B). The flow rate was 0.5 mL/min.
In addition, the API4000 Series LC/MS/MS spectrometer for analysis was equipped with a G1312A binary syringe pump, G1367A autosampler and MS/MS detector; ESI source was used in LC/MS/MS spectrometer. Each analyte was treated in a suitable cation model and optimally analyzed by MRM conversion with using standard solutions. Waters XBridge™ C18 was used during the analysis and the size was: 2.1×30 mm, 3.5 μM. The mobile phase was (2 mM ammonium formate+0.1% formic acid) (A) and (methanol+2 mM ammonium formate+0.1% formic acid) (B). The flow rate was 0.5 mL/min; the column temperature was maintained at 40° C.; 15 μL of sample was injected.
The present invention evaluates the pharmacokinetic study of a series of compounds of the invention in rats. The compound of the present invention was added into a mixture formed by dissolving and dispersing Tween-20 and/or Span-20 in water after being subjected to a pretreatment such as grinding, sieving, etc., and was uniformly dispersed and fixed to a constant volume; the suspension was grinded by a ball mill, then administered. The animals were given a vortioxetine solution (17.5 mg/kg) and a suspension of vortioxetine compound (75 mg/kg) by intramuscular injection. After administration, whole blood was collected at 0.25, 1, 2, 5, 7, 24, 48, 72, 96, 120, 148, and 196 h, and plasma was separated and frozen for testing. And the plasma was centrifuge at 12,000 for 2 minutes. Plasma samples were collected and stored at −20° C. or −70° C. until LC/MS/MS analysis. […] The average drug-time curve of some of the compounds of the present invention after intramuscular injection in rats is shown in FIG. 1.

Compound Cc1ccc(Sc2ccccc2N2CCNCC2)c(C)c1 [WTXT, Vortioxetine] has an AUC(0-t) (read-out: Exposure level AUClast) of 1370 ng·h/mL, a half-life (read-out: Half-life period T1/2 (converted)) of 2.74 h and a Cmax (read-out: Peak concentration Cmax) of 530 ng/mL. It also gave a Tmax (read-out: Time to peak Tmax) of 0.25 h.
